Here are results for nine molecules from ChEMBL document CHEMBL4376904, “Bifunctional Pyrimidines as Modulators of Focal Adhesion Kinase” (ACS Med Chem Lett, 2020).

The species named for one assay is Homo sapiens. The experiment in a line: Protac activity at E3 Ubiquitin-protein ligase/Focal adhesion kinase in human PC3 cells assessed as induction of FAK protein degradation by immunoblotting analysis relative to control. It counts as cell-based.
The nature of the next assay: cells. The settings on record: Homo sapiens, PC-3.

As to `CNC(=O)c1ccc(Nc2ncc(C(F)(F)F)c(NCc3nccnc3N(C)S(C)(=O)=O)n2)cc1`, the Emax in the assay filed under Homo sapiens was determined as 0%.
`CN(c1cccc(CNc2nc(Nc3ccc(OCCCOCCC(=O)NCCOc4cccc5c4C(=O)N(C4CCC(=O)NC4=O)C5=O)cc3)ncc2C(F)(F)F)c1)S(C)(=O)=O` (stereo unspecified): the Emax in the assay filed under Homo sapiens stood at 99%.
Take `Cc1ncsc1-c1ccc(CNC(=O)[C@@H]2C[C@@H](O)CN2C(=O)[C@@H](NC(=O)CCOCCCOc2ccc(Nc3ncc(C(F)(F)F)c(NCc4cccc(N(C)S(C)(=O)=O)c4)n3)cc2)C(C)(C)C)cc1`: in the assay listed under Homo sapiens, the Emax was found to be 99%.
`Cc1ncsc1-c1ccc(CNC(=O)[C@@H]2C[C@@H](O)CN2C(=O)[C@@H](NC(=O)CCOCCOc2ccc(Nc3ncc(C(F)(F)F)c(NCc4cccc(N(C)S(C)(=O)=O)c4)n3)cc2)C(C)(C)C)cc1`: the DC50 in “cells” turned out to be 3.3 nM. In addition, in the assay listed under Homo sapiens, the Emax was 99%.
As for `Cc1ncsc1-c1ccc(CNC(=O)[C@@H]2C[C@@H](O)CN2C(=O)[C@@H](NC(=O)COCCCOc2ccc(Nc3ncc(C(F)(F)F)c(NCc4cccc(N(C)S(C)(=O)=O)c4)n3)cc2)C(C)(C)C)cc1`, in the assay filed under Homo sapiens, the Emax was 99%.
For `Cc1ncsc1-c1ccc(CNC(=O)[C@@H]2C[C@@H](O)CN2C(=O)[C@@H](NC(=O)COCCOc2ccc(Nc3ncc(C(F)(F)F)c(NCc4cccc(N(C)S(C)(=O)=O)c4)n3)cc2)C(C)(C)C)cc1`, the Emax in the assay filed under Homo sapiens came to 99%.
`CN(c1cccc(CNc2nc(Nc3ccc(OCCOCCOCCC(=O)NCCOc4cccc5c4C(=O)N(C4CCC(=O)NC4=O)C5=O)cc3)ncc2C(F)(F)F)c1)S(C)(=O)=O` (stereo unspecified) came in with a DC50 in the assay “cells” of 26.7 nM. Moreover, in the assay listed under Homo sapiens, the Emax came out at 99%.
On to `CN(c1cccc(CNc2nc(Nc3ccc(OCCOCCOCCOCCOCCC(=O)NCCOc4cccc5c4C(=O)N(C4CCC(=O)NC4=O)C5=O)cc3)ncc2C(F)(F)F)c1)S(C)(=O)=O` (stereo unspecified), for which, in the assay listed under Homo sapiens, the Emax came out at 87%.
With `Cc1ncsc1-c1ccc(CNC(=O)[C@@H]2C[C@@H](O)CN2C(=O)[C@@H](NC(=O)CCOCCOCCOc2ccc(Nc3ncc(C(F)(F)F)c(NCc4cccc(N(C)S(C)(=O)=O)c4)n3)cc2)C(C)(C)C)cc1`, the Emax in the assay listed under Homo sapiens amounted to 99%.
